≈ marks a conversion by molar mass, not a printed value.
Key:
Rattus norvegicus [1] = test: Inhibition of LPS-induced TNFalpha level in Sprague-Dawley rat serum at 25 mg/kg, po pretreated for 1 hr followed by LPS treatment measured after 90 mins by ELISA relative to control; assay type: functional
[2] = tested on: unidentified influenza virus; test: Antiviral activity against Influenza virus H5N1; assay type: functional
[3] = biological target: T1, Tyrosine-protein kinase Lyn (Homo sapiens, UniProt P07948); test: Inhibition of Lyn (unknown origin) using Src-family kinase bisamide rhodamine 110 peptide substrate after 1 hr by fluorescence assay
Target sequence in this assay (P07948 whole entry): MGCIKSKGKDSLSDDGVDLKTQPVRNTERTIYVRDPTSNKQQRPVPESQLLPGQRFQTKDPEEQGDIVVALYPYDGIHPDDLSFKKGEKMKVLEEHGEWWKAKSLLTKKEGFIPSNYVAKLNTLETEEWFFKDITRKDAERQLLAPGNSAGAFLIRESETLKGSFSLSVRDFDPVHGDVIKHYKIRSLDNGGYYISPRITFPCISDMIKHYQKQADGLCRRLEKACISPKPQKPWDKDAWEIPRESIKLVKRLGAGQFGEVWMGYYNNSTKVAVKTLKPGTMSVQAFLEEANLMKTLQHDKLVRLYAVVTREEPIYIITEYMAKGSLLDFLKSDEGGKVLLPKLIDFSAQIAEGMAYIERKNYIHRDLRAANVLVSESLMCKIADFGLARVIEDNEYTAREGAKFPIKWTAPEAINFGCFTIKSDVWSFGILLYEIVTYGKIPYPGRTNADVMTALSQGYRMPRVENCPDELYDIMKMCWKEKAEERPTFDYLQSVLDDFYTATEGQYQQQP

Newcastle disease virus = test: Antiviral activity against Newcastle disease virus; assay type: functional; details: avian paramyxovirus 1
Rattus norvegicus [4] = test: Anti-hyperglycemic activity in streptozotocin-induced Wistar albino rat diabetic model assessed as reduction in blood glucose level at 4 mg/kg equiv of glimepiride treated orally measured up to 6 hrs post dose by glucometric method relative to control; assay type: functional; parameters: scale not given: the % may be the effect or the level left
Rattus norvegicus [5] = test: Anti-hyperglycemic activity in Wistar albino rat sucrose loaded model assessed as reduction in blood glucose level at 4 mg/kg equiv of glimepiride pretreated orally for 30 mins followed by sucrose challenge and measured up to 120 mins post sucrose challenge relative to control; assay type: functional; parameters: scale not given: the % may be the effect or the level left
Tetrahymena = test: Protozoacidal activity against Tetrahymena; assay type: functional
[6] = biological target: T2, Tyrosine-protein kinase Fyn (Homo sapiens, UniProt P06241); test: Inhibition of Fyn (unknown origin) using Src-family kinase bisamide rhodamine 110 peptide substrate after 1 hr by fluorescence assay
Target sequence in this assay (P06241 whole entry): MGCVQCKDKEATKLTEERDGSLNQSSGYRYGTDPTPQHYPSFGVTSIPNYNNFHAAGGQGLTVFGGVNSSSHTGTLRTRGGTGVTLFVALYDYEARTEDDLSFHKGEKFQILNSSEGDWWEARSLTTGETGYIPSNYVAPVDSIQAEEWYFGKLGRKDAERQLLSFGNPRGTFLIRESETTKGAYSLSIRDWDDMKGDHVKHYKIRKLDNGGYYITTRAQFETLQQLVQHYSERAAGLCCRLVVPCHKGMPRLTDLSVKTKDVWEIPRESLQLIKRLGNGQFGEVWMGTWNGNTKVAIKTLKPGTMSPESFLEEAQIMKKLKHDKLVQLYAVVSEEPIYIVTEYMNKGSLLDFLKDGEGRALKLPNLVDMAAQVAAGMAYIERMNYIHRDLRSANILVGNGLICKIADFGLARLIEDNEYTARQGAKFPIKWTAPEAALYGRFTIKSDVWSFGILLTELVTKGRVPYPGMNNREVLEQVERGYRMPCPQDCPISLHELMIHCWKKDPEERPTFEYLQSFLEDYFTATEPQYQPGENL

Jurkat E6.1 = test: Antiproliferative activity against human Jurkat E6-1 cells; assay type: functional, cell-based
HL-60 = test: Antiproliferative activity against human HL60 cells; assay type: functional, cell-based
[7] = biological target: T2, Tyrosine-protein kinase Fyn; test: Inhibition of Fyn (unknown origin) at 0.1 mM using Src-family kinase bisamide rhodamine 110 peptide substrate after 1 hr by fluorescence assay relative to control
Target sequence in this assay (P06241 2-537 limits assumed): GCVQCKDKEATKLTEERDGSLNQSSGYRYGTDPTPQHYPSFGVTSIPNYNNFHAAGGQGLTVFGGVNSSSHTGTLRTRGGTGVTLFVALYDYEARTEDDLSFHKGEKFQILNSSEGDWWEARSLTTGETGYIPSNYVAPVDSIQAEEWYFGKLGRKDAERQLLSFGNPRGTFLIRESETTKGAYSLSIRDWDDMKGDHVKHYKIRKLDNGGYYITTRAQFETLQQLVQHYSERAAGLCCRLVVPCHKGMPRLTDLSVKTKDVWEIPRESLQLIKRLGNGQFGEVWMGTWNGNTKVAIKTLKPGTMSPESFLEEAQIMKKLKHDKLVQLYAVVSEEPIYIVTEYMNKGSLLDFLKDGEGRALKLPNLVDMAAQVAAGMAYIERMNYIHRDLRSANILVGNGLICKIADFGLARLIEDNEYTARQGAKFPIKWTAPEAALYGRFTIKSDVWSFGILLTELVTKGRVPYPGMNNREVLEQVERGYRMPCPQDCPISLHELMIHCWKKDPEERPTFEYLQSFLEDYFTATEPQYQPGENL

[8] = biological target: T1, Tyrosine-protein kinase Lyn; test: Inhibition of Lyn (unknown origin) at 0.1 mM using Src-family kinase bisamide rhodamine 110 peptide substrate after 1 hr by fluorescence assay relative to control
Target sequence in this assay (P07948 2-512 limits assumed): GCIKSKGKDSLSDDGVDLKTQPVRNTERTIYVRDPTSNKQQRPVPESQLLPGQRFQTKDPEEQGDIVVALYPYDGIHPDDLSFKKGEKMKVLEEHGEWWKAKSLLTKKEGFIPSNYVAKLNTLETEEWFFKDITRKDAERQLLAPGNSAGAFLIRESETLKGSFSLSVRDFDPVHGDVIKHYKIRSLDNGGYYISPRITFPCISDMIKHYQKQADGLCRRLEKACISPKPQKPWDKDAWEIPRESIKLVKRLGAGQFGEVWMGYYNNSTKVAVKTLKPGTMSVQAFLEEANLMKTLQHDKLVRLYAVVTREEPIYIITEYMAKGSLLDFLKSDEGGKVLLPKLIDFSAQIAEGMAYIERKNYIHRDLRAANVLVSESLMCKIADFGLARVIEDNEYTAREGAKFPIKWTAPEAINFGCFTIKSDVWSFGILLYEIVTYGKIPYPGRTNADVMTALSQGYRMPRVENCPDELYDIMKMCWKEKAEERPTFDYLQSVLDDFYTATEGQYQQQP

[9] = biological target: Proto-oncogene tyrosine-protein kinase Src (Homo sapiens) (UniProt P12931); test: Inhibition of Src (unknown origin) at 0.1 mM using Src-family kinase bisamide rhodamine 110 peptide substrate after 1 hr by fluorescence assay relative to control
Sequence of Proto-oncogene tyrosine-protein kinase Src (Homo sapiens) (P12931 2-536 limits assumed): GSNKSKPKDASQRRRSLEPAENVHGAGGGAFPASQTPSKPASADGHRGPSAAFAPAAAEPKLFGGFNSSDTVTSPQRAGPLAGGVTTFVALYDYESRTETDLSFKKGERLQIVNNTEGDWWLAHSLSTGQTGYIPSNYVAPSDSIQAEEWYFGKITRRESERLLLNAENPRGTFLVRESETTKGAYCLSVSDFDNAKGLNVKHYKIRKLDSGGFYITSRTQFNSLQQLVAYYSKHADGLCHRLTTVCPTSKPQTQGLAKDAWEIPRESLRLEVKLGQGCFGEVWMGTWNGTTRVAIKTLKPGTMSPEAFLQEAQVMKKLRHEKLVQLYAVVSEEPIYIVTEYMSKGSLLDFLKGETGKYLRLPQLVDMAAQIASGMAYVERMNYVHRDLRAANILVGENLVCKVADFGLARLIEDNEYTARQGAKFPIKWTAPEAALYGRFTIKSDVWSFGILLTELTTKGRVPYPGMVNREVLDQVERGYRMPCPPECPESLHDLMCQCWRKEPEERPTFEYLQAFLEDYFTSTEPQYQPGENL

Escherichia coli = test: Antibacterial activity against Escherichia coli; assay type: functional
Salmonella typhimurium = test: Antibacterial activity against Salmonella typhimurium; assay type: functional, Salmonella enterica subsp. enterica serovar Typhimurium; details: Salmonella enterica

With `C[C@@H]1C[C@H]2[C@@H]3CCC4=CC(=O)C=C[C@]4(C)[C@@]3(F)[C@@H](O)C[C@]2(C)[C@@]1(O)C(=O)CO` [DEXAMETHASONE] the inhibition in vivo at 25 mg/kg (Rattus norvegicus [1]) was 91%.
Work on `O=c1c2cc(-c3ccccc3)n(-c3ccccc3)c2ncn1CCOCCO` yielded an MIC [2] of 3.8 µg/mL (≈ 10.1 µM).
`COc1cccc(-c2cn(-c3ccc(CCN4CCC(O)CC4)cc3)c3ncnc(N)c23)c1` gave an IC50 [3] of 0.4 nM.
`NC(=O)c1ncn([C@@H]2O[C@H](CO)[C@@H](O)[C@H]2O)n1` [RIBAVIRIN] was tested, and the MIC (Newcastle disease virus) was 3 µg/mL (≈ 12.3 µM) and the MIC [2] was 6 µg/mL (≈ 24.6 µM).
`O=c1c2cc(-c3ccc(Br)cc3)n(-c3ccccc3)c2ncn1CC(O)CO` (centres undefined) was tested, and the MIC [2] was 4.1 µg/mL (≈ 9.31 µM).
For `Cc1nc(Cl)c2c(-c3ccccc3)c(-c3ccccc3)n(-c3c(C)n(C)n(-c4ccccc4)c3=O)c2n1`, the Activity (Rattus norvegicus [4]) was 11.2% and the Activity (Rattus norvegicus [5]) was 13%.
`C[C@H](Nc1ncnc2[nH]c(-c3ccc(O)cc3)cc12)c1ccc(Br)cc1` showed an MIC (Tetrahymena) of 8 µg/mL (≈ 19.5 µM).
`CN1CCN([C@H]2CC[C@H](n3cc(-c4ccc(Oc5ccccc5)cc4)c4c(N)ncnc43)CC2)CC1` gave an IC50 [6] of 0.3 nM.
For `O=c1c2cc(-c3ccccc3)n(-c3ccccc3)c2ncn1CC(O)CO` (centres undefined), the MIC [2] was 3.6 µg/mL (≈ 9.96 µM).
Compound `CCOc1ccc(NC(=O)Cn2cnc3c(cc(-c4ccccc4)n3-c3ccncc3)c2=O)cc1` has an inhibition in vivo at 25 mg/kg (Rattus norvegicus [1]) of 96%.
With `CCCCCc1ccc(-c2cc3cn([C@@H]4O[C@H](CO)[C@@H](O)[C@@H]4O)c(=O)nc3[nH]2)cc1` the IC50 (Jurkat E6.1) was 61000 nM and the IC50 (HL-60) was 68000 nM.
`Nc1ccn([C@@H]2O[C@H](CO)[C@@H](O)[C@@H]2O)c(=O)n1` [CYTARABINE] was tested, and the IC50 (Jurkat E6.1) was 18 nM and the IC50 (HL-60) was 185 nM.
`Nc1nc2[nH]cc(CNC(=O)COc3ccc(Cl)cc3)c2c(=O)[nH]1` gave an inhibition [7] of 36%, an inhibition [8] of 28% and an inhibition [9] of 60%.
`COc1ccc(-c2cc3c(N[C@H](C)c4cccc5ccccc45)ncnc3[nH]2)cc1` gave an MIC (Tetrahymena) of 32 µg/mL (≈ 81.1 µM).
Work on `C[C@@H](Nc1ncnc2[nH]c(-c3ccc(O)cc3)cc12)c1cccc2ccccc12` yielded an MIC (Tetrahymena) of 32 µg/mL (≈ 84.1 µM).
In the case of `O=c1c2cc(-c3ccc(Br)cc3)n(-c3ccccc3)c2ncn1CCOCCO`, the MIC [2] is reported as 4.5 µg/mL (≈ 9.9 µM).
`C[C@H](Nc1ncnc2[nH]c(-c3ccc(O)cc3)cc12)c1ccccc1` gave an MIC (Tetrahymena) of 8 µg/mL (≈ 24.2 µM).
For `COc1ccc(CCCC(=O)NCc2c[nH]c3nc(N)[nH]c(=O)c23)cc1OC`, the inhibition [7] was 38%, the inhibition [8] was 32% and the inhibition [9] was 54%.
Work on `O=c1[nH]cnc2c1cc(-c1ccccc1)n2-c1ccccc1` yielded an MIC (Newcastle disease virus) of 2.7 µg/mL (≈ 9.4 µM), an MIC (Escherichia coli) of 2.8 µg/mL (≈ 9.75 µM) and an MIC (Salmonella typhimurium) of 2.8 µg/mL (≈ 9.75 µM).
`O=c1[nH]cnc2c1cc(-c1ccc(Cl)cc1)n2-c1ccccc1` was tested, and the MIC (Escherichia coli) was 3.2 µg/mL (≈ 9.95 µM) and the MIC (Salmonella typhimurium) was 3.2 µg/mL (≈ 9.95 µM).
In the case of `Cc1ccc(C(=O)NCc2c[nH]c3nc(N)[nH]c(=O)c23)s1`, the inhibition [7] is reported as 41%, the inhibition [8] is reported as 40% and the inhibition [9] is reported as 71%.

— ChEMBL document CHEMBL4270610, “Pyrrolopyrimidines: An update on recent advancements in their medicinal attributes” (Eur J Med Chem, 2018)
